Assays:
KRAS G12S = KRAS G12S (Homo sapiens (Human), UniProt P01116+P62937, G12S); experiment: Ras-Raf (BRAF RBD) disruption / FRET / MOA assay, KRAS G12S; assay type: biochemical; conditions: Ras-Raf disruption/FRET/MOA assay; class symbols; read-out: KRAS G12S FRET data IC50
Description: (§1) The purpose of this biochemical assay is to measure the ability of test compounds to facilitate ternary complex formation between a nucleotide-loaded Ras isoform and cyclophilin A; the resulting ternary complex disrupts binding to a BRAF^RBD construct, inhibiting Ras signaling through a RAF effector.
(§2) Compound is present in plate wells as a 10-point 3-fold dilution series starting at a final concentration of 30 μM. After incubation at 25° C. for 3 hours, a mixture of Anti-His Eu-W1024 and anti-GST allophycocyanin is then added to assay sample wells at final concentrations of 10 nM and 50 nM, respectively, and the reaction incubated for an additional 1.5 hours. […] Compounds that facilitate disruption of a Ras:RAF complex are identified as those eliciting a decrease in the TR-FRET ratio relative to DMSO control wells.
(§3) This protocol may also be executed substituting other Ras proteins or nucleotides.
(§4) The purpose of this biochemical assay was to measure the ability of test compounds to facilitate ternary complex formation between a nucleotide-loaded K-Ras isoform and Cyclophilin A; the resulting ternary complex disrupts binding to a BRAF^RBD construct, inhibiting K-Ras signaling through a RAF effector. Data is reported as IC50 values.
as §2, with “Compound was” for “Compound is”, “allophycocyanin was” for “allophycocyanin is”, “a K-Ras:RAF” for “a Ras:RAF”, “complex were” for “complex are”

KRAS G12D = KRAS G12D (Homo sapiens (Human), UniProt P01116+P62937, G12D); experiment: Ras-Raf (BRAF RBD) disruption / FRET / MOA assay, KRAS G12D; assay type: biochemical; conditions: Ras-Raf disruption/FRET/MOA assay; class symbols; read-out: KRAS G12D FRET data IC50
Description: as §1, §2, §3, §4
as §2, with “Compound was” for “Compound is”, “allophycocyanin was” for “allophycocyanin is”, “a K-Ras:RAF” for “a Ras:RAF”, “complex were” for “complex are”

Sequence of KRAS G12S (P01116-2 other isoform, or with tags, fused parts or gaps G12S): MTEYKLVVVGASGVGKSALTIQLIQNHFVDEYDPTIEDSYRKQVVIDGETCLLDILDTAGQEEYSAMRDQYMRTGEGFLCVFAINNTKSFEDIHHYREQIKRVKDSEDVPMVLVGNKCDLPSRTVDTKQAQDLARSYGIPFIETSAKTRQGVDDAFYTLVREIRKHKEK
Sequence of KRAS G12S (P62937 whole entry, canonical isoform): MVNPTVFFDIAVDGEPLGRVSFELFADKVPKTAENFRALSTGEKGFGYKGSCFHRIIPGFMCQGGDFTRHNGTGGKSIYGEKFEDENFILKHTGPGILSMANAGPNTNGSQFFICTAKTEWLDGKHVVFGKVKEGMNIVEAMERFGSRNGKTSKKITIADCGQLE
Sequence of KRAS G12D (P01116-2 other isoform, or with tags, fused parts or gaps G12D): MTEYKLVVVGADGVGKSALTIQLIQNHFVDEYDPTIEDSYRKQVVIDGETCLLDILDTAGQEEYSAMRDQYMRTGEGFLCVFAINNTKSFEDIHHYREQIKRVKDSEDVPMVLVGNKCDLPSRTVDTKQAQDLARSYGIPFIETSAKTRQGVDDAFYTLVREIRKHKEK
Sequence of KRAS G12D (P62937 whole entry): as the sequence (P62937 whole entry, canonical isoform) above

Compound | IC50 (KRAS G12S) [µM] | IC50 (KRAS G12D) [µM]
C=CC(=O)N1CC(C(=O)N(C)[C@H](C(=O)N[C@H]2Cc3cc(O)cc(c3)-c3ccc4c(c3)c(c(-c3cccnc3COC)n4CC)CC(C)(C)COC(=O)[C@@H]3CCCN(N3)C2=O)C(C)C)C1 (single isomer, unassigned) [Example A070] | 0.1 to 1 | 1 to 10
C=CC(=O)N1CC[C@H](C(=O)N(C)[C@H](C(=O)N[C@H]2Cc3cc(O)cc(c3)-c3ccc4c(c3)c(c(-c3ccc(CN5CCCC5)cc3)n4CC)CC(C)(C)COC(=O)[C@@H]3CCCN(N3)C2=O)C(C)C)C1 [Example A010] | 1 to 10 | > 10
C=CC(=O)N1CCCN(C(=O)N(C)[C@H](C(=O)N[C@H]2Cc3cc(O)cc(c3)-c3ccc4c(c3)c(c(-c3ccccc3CCOC)n4CC)CC(C)(C)COC(=O)[C@@H]3CCCN(N3)C2=O)C(C)C)CC1 [Example A013] | 1 to 10 | > 10
C=CC(=O)N1CC[C@H](C(=O)N(C)[C@H](C(=O)N[C@H]2Cc3cc(O)cc(c3)-c3ccc4c(c3)c(c(-c3ccccc3OC)n4CC)CC(C)(C)COC(=O)[C@@H]3CCCN(N3)C2=O)C(C)C)C1 [Example A017] | 1 to 10 | > 10
C=CC(=O)N1CC[C@H](C(=O)N(C)[C@H](C(=O)N[C@H]2Cc3cccc(c3)-c3ccc4c(c3)c(c(-c3ccccc3CCOC)n4CC)CC(C)(C)COC(=O)[C@@H]3CCCN(N3)C2=O)C(C)C)C1 [Example A024] | > 10 | > 10
C=CC(=O)N1CC[C@H](C(=O)N(C)[C@H](C(=O)N[C@H]2Cc3cc(O)cc(c3)-c3ccc4c(c3)c(c(-c3ccccc3COC)n4CC)CC(C)(C)COC(=O)[C@@H]3CCCN(N3)C2=O)C2CCCC2)C1 [Example A027] | 0.1 to 1 | > 10
C=CC(=O)N1CC2(CCN([C@H](C(=O)N[C@H]3Cc4cc(O)cc(c4)-c4ccc5c(c4)c(c(-c4ccccc4CCOC)n5CC)CC(C)(C)COC(=O)[C@@H]4CCCN(N4)C3=O)C(C)C)C2=O)C1 [Example A031] | 1 to 10 | > 10
C=CC(=O)N1CC[C@H](C(=O)N(C)[C@H](C(=O)N[C@H]2Cc3cc(O)cc(c3)-c3ccc4c(c3)c(c(-c3cncc(C#N)c3)n4CC)CC(C)(C)COC(=O)[C@@H]3CCCN(N3)C2=O)C(C)C)C1 [Example A062] |  | > 10
C=CC(=O)N1CC[C@H](C(=O)N(C)[C@H](C(=O)N[C@H]2Cc3cc(O)cc(c3)-c3ccc4c(c3)c(c(-c3cnccc3[C@H](C)OC)n4CC)CC(C)(C)COC(=O)[C@@H]3CCCN(N3)C2=O)C(C)C)C1 [Example A076] |  | 0.1 to 1
C=CC(=O)N1CC[C@H](C(=O)N(C)[C@H](C(=O)N[C@H]2Cc3cc(O)cc(c3)-c3ccc4c(c3)c(c(-c3cnccc3COC)n4CC)CC(C)(C)COC(=O)[C@@H]3CCCN(N3)C2=O)C(C)C)C1 [Example A091] |  | 1 to 10
CCn1c(-c2cccnc2COC)c2c3cc(ccc31)-c1cc(O)cc(c1)C[C@H](NC(=O)[C@H](C(C)C)N(C)C(=O)[C@H]1CCN(C(=O)C#CCN(C)C)C1)C(=O)N1CCC[C@H](N1)C(=O)OCC(C)(C)C2 [Example A096] |  | 1 to 10

More lines, now with the values ahead:

IC50 (KRAS G12S) [µM] | IC50 (KRAS G12D) [µM] | Compound
0.1 to 1 | 1 to 10 | C=CC(=O)N1CC[C@H](C(=O)N(C)[C@H](C(=O)N[C@H]2Cc3cc(O)cc(c3)-c3ccc4c(c3)c(c(-c3ccccc3CN(C)C)n4CC)CC(C)(C)COC(=O)[C@@H]3CCCN(N3)C2=O)C(C)C)C1 [Example A005]
1 to 10 | > 10 | C=CC(=O)N1CC[C@H](C(=O)N(C)[C@H](C(=O)N[C@H]2Cc3cc(O)cc(c3)-c3ccc4c(c3)c(c(-c3ccccc3CCOC)n4CC)CC(C)(C)COC(=O)[C@@H]3CCCN(N3)C2=O)C2CCOCC2)C1 [Example A006]
1 to 10 | > 10 | C=CC(=O)N1CC[C@H](C(=O)N(C)[C@H](C(=O)N[C@H]2Cc3cc(OC(=O)CN)cc(c3)-c3ccc4c(c3)c(c(-c3ccccc3CCOC)n4CC)CC(C)(C)COC(=O)[C@@H]3CCCN(N3)C2=O)C(C)C)C1 [Example A008]
> 10 | > 10 | C=CC(=O)N1CC[C@H](C(=O)N(C)[C@H](C(=O)N[C@H]2Cc3cc(cc(O)c3F)-c3ccc4c(c3)c(c(-c3ccccc3CCOC)n4CC)CC(C)(C)COC(=O)[C@@H]3CCCN(N3)C2=O)C(C)C)C1 [Example A009]
1 to 10 | > 10 | C=CC(=O)N1CCC(C(=O)N(C)[C@H](C(=O)N[C@H]2Cc3cc(O)cc(c3)-c3ccc4c(c3)c(c(-c3ccccc3CCOC)n4CC)CC(C)(C)COC(=O)[C@@H]3CCCN(N3)C2=O)C(C)C)CC1 [Example A014]
1 to 10 | > 10 | C=CC(=O)N1CCN(C(=O)N(C)[C@H](C(=O)N[C@H]2Cc3cc(O)cc(c3)-c3ccc4c(c3)c(c(-c3ccccc3CCOC)n4CC)CC(C)(C)COC(=O)[C@@H]3CCCN(N3)C2=O)C(C)C)CC1 [Example A018]
1 to 10 | > 10 | C=CC(=O)N1CCC(F)(C(=O)N(C)[C@H](C(=O)N[C@H]2Cc3cc(O)cc(c3)-c3ccc4c(c3)c(c(-c3ccccc3CN(C)C)n4CC)CC(C)(C)COC(=O)[C@@H]3CCCN(N3)C2=O)C(C)C)CC1 [Example A020]
> 10 | > 10 | C=CC(=O)N1CC[C@H](C(=O)N(C)[C@H](C(=O)N[C@H]2Cc3cc(O)cc(c3)-c3ccc4c(c3)c(c(-c3ccc(CC(=O)O)cc3)n4CC)CC(C)(C)COC(=O)[C@@H]3CCCN(N3)C2=O)C(C)C)C1 [Example A021]
0.1 to 1 | 1 to 10 | C=CC(=O)N1CC[C@H](C(=O)N(C)[C@H](C(=O)N[C@H]2Cc3cc(O)cc(c3)-c3ccc4c(c3)c(c(-c3ccccc3[C@H](C)OC)n4CC)CC(C)(C)COC(=O)[C@@H]3CCCN(N3)C2=O)C(C)C)C1 [Example A022]
0.1 to 1 | 1 to 10 | C=CC(=O)N1CC[C@H](C(=O)N(C)[C@H](C(=O)N[C@H]2Cc3cc(O)cc(c3)-c3ccc4c(c3)c(c(-c3ccccc3[C@@H](C)OC)n4CC)CC(C)(C)COC(=O)[C@@H]3CCCN(N3)C2=O)C(C)C)C1 [Example A029]
1 to 10 | > 10 | C=CC(=O)N1CC[C@H](C(=O)N(C)[C@H](C(=O)N[C@H]2Cc3cc(O)cc(c3)-c3ccc4c(c3)c(c(-c3cccc(CN(C)C)c3)n4CC)CC(C)(C)COC(=O)[C@@H]3CCCN(N3)C2=O)C(C)C)C1 [Example A030]
 | > 10 | C=CC(=O)N1CC[C@H](C(=O)N(C)[C@H](C(=O)N[C@H]2Cc3cc(OC(=O)CCC(=O)O)cc(c3)-c3ccc4c(c3)c(c(-c3ccccc3CCOC)n4CC)CC(C)(C)COC(=O)[C@@H]3CCCN(N3)C2=O)C(C)C)C1 [Example A032]
 | 1 to 10 | C=CC(=O)N1CC[C@H](C(=O)N(C)[C@H](C(=O)N[C@H]2Cc3cc(O)cc(c3)-c3ccc4c(c3)c(c(-c3ccccc3CCOC)n4C(C)(C)C#N)CC(C)(C)COC(=O)[C@@H]3CCCN(N3)C2=O)C(C)C)C1 [Example A034]
 | 1 to 10 | C=CC(=O)N1CC[C@H](C(=O)N(C)[C@H](C(=O)N[C@H]2Cc3cc(O)cc(c3)-c3ccc4c(c3)c(c(-c3cc(F)cnc3COC)n4CC)CC(C)(C)COC(=O)[C@@H]3CCCN(N3)C2=O)C(C)C)C1 [Example A082]
 | > 10 | C=CC(=O)N1CC[C@H](C(=O)N(C)[C@H](C(=O)N[C@H]2Cc3cc(O)cc(c3)-c3ccc4c(c3)c(c(-c3ccccc3CO)n4CC)CC(C)(C)COC(=O)[C@@H]3CCCN(N3)C2=O)C(C)C)C1 [Examples A004]
